Test results taken from patent US20190125712A1, “COMPOUND FOR ENHANCING ACTIVITY OF ANTIBIOTIC COMPOSITIONS AND OVERCOMING DRUG RESISTANCE” (SHOOLINI UNIVERSITY OF BIOTECHNOLOGY AND MANAGEMENT SCIENCES, priority 2015, published 2019).
In brackets after ≈: the same amount, converted by molar mass. Like-named read-outs stand apart in the source and are kept apart here. Peptide text beside a SMILES is read from it. * marks the point of attachment. βNA = c1ccc2cc(N*)ccc2c1

How the values were obtained:
Pseudomonas aeruginosa = conditions: against Pseudomonas aeruginosa; Barrett J F (2001); cited from earlier work
[1] = system: K. pneumonia Strain 52145 (Drug sensitive or control); test: MIC, ethyl gallate as activity enhancer of antibiotics, drug sensitive K. pneumonia; assay type: cell-based, Klebsiella pneumonia; conditions: for MIC: Klebsiella pneumoniae; for MIC Antibiotic + ethyl gallate: combination with ethyl gallate; for Minimum Inhibitory Concentration (MIC): group C: antibiotic + Ethyl gallate 1000 μg/ml; for Fold decrease in antibiotic concentration: on addition of ethyl gallate
Procedure: (§1) This was carried out to assess the potential of the compound to enhance antimicrobial activity and overcome antibacterial resistance.
(§2) The resistant & sensitive control strains of K. pneumonia were procured from Dr. Enrique Llobet, CIBERES, Bunyola, Spain, Dr. Mazzariol of Verona University, Italy and one sensitive control strain were procured from IMTECH, Chandigarh (Table-2). Pseudomonas aeruginosa control cultures (Sensitive & Resistant) were procured from Dr. Thilo Kohler, University of Geneva, and Department of Microbiology and Molecular Medicine Geneve, Switzerland and one sensitive control strain were procured from IMTECH, Chandigarh (Table-3).

[2] = system: K. pneumonia 1740 knockout (Drug resistant); assay type: cell-based, Klebsiella pneumonia; conditions: for MIC Antibiotic + ethyl gallate: combination with ethyl gallate; for MIC: group C: antibiotic + Ethyl gallate 1000 μg/ml, strain 1740 knockout; for Fold decrease in antibiotic concentration: on addition of ethyl gallate
Procedure: as §1, §2

[3] = system: P. aeruginosa Strain MTCC-471 (Drug sensitive or control); test: MIC, ethyl gallate as activity enhancer of antibiotics, drug sensitive P. aeruginosa; assay type: cell-based, Pseudomonas aeruginosa; conditions: for MIC: Pseudomonas aeruginosa, MTCC471, agent alone (group A ethyl gallate alone, group B antibiotics alone), read-out: Minimum Inhibitory Concentration (MIC); for MIC / Minimum Inhibitory Concentration (MIC): strain MTCC-471; for MIC Antibiotic + ethyl gallate: combination with ethyl gallate; for Minimum Inhibitory Concentration (MIC): group C: antibiotic + Ethyl gallate 1000 μg/ml; for Fold decrease in antibiotic concentration: on addition of ethyl gallate
Procedure: as §1, §2

[4] = system: P. aeruginosa PS11 (Drug resistant); test: MIC, ethyl gallate as activity enhancer of antibiotics, drug resistant P. aeruginosa; assay type: cell-based, Pseudomonas aeruginosa; conditions: for MIC: strain PS11; for MIC Antibiotic + ethyl gallate: combination with ethyl gallate; for Fold decrease in antibiotic concentration: on addition of ethyl gallate
Procedure: as §1
K. pneumonia isolate was collected from Gian Sagar medical college, Patiala and characterized in Immuno-parasitoloy Lab, Shoolini University, Solan for multidrug resistance. P. aeruginosa drug resistant strain was collected from Gian Sagar medical college, Patiala and characterized in Immunoparasitoloy Lab, Shoolini University, Solan.

[5] = Solubility of the extracted compound; assay type: physicochemical; conditions: compound extracted from T. chebula
Procedure: Then column chromatography was performed on silica gel to extract the compound. 6 fractions for T. chebula plant were obtained by column chromatography. All fractions of T. chebula were subjected for their synergistic activity. The fraction showing synergistic activity was then characterized to know the physical properties of bioactive molecule and the molecular weight of bioactive molecule was determined by LCMS and the structure was elucidated by NMR.

[6] = Table 4 (K. pneumonia, both strains), agent alone, read-out: MIC
[7] = agent alone (group A ethyl gallate alone, group B antibiotics alone), strain 52145, read-out: Minimum Inhibitory Concentration (MIC)
[8] = Sensitive Strain, K. pneumonia 52145
[9] = Resistant Strain, K. pneumonia 1740 knockout
[10] = Sensitive Strain, P. aeruginosa MTCC-471
[11] = Pseudomonas aeruginosa, agent alone (group A ethyl gallate alone, group B antibiotics alone), read-out: MIC
[12] = Resistant Strain, P. aeruginosa PS11
[13] = group C: antibiotic + Ethyl gallate 1000 μg/ml

SMILES | MIC [1, 6] [µg/mL] | MIC [1, 7] [µg/mL] | MIC Antibiotic Alone [1, 8] | MIC Antibiotic + ethyl gallate [1, 8] | Minimum Inhibitory Concentration (MIC) ([1]; strain 52145) [µg/mL] | Fold decrease in antibiotic concentration [1, 8] [fold] | MIC Antibiotic Alone [2, 9] [µg/mL] | MIC Antibiotic + ethyl gallate [2, 9] [µg/mL] | MIC [2] [µg/mL] | Fold decrease in antibiotic concentration [2, 9] [fold] | MIC [3] [µg/mL] | MIC Antibiotic Alone [3, 10] [µg/mL] | MIC Antibiotic + ethyl gallate [3, 10] [µg/mL] | Minimum Inhibitory Concentration (MIC) [3] [µg/mL] | Fold decrease in antibiotic concentration [3, 10] [fold] | MIC [4, 11] [µg/mL] | MIC Antibiotic Alone [4, 12] [µg/mL] | MIC Antibiotic + ethyl gallate [4, 12] [µg/mL] | MIC [4, 13] [µg/mL] | Fold decrease in antibiotic concentration [4, 12] [fold] | other results
N=C(N)NCCC[C@H](NC(=O)[C@@H](N)Cc1ccccc1)C(=O)Nc1ccc2ccccc2c1 [PAβN, L-phenylalanyl-L-arginyl-b naphthylamide] (H-Phe-Arg-βNA) | – | – | – | – | – | – | – | – | – | – | – | – | – | – | – | – | – | – | – | – | potentiation of the activity of levofloxacin (Pseudomonas aeruginosa): 8 fold
CN(C)[C@@H]1C(O)=C(C(N)=O)C(=O)[C@@]2(O)C(O)=C3C(=O)c4c(O)cccc4[C@@](C)(O)[C@H]3C[C@@H]12 [Tetracycline] | 2 | 2 | 2.000 | 0.500 | 0.500 | 4 | 2 (≈ 4.5 µM) | 0.5 | 0.500 | 4 | 0.125 | 0.125 | 0.06 | 0.060 | 2 | 2 | 2 | 0.5 | 0.50 | 4 | –
CCOC(=O)c1cc(O)c(O)c(O)c1 [Ethyl gallate, ethyl gallate] | 2 | 2 | – | – | – | – | – | – | – | – | 0.06 | – | – | – | – | 2 | – | – | – | – | MIC Ethyl gallate ([1]; Sensitive Strain, K. pneumonia 52145, ethyl gallate alone): 2.000; MIC Ethyl gallate ([2]; Resistant Strain, K. pneumonia 1740 knockout, ethyl gallate alone): 2 µg/mL (≈ 10.1 µM); MIC Ethyl gallate ([3]; Sensitive Strain, P. aeruginosa MTCC-471, ethyl gallate alone): 0.06 µg/mL; MIC Ethyl gallate ([4]; Resistant Strain, P. aeruginosa PS11, ethyl gallate alone): 2 µg/mL; solubility [5]: soluble in methanol and water
O=C(O)c1cn(C2CC2)c2cc(N3CCNCC3)c(F)cc2c1=O [Ciprofloxacin] | – | 0.06 | 0.060 | 0.003 | 0.003 | – | – | 0.003 | 0.003 | – | – | – | 0.06 | 0.060 | – | 2 | 2 | 1 | 1.00 | – | –
O=C(N[C@H](CO)[C@H](O)c1ccc([N+](=O)[O-])cc1)C(Cl)Cl [Chloramphenicol] | 2 | 2 | 2.000 | 1.000 | 1.000 | 2 | 2 (≈ 6.19 µM) | 0.5 | 0.500 | 4 | 1 | 1 | 0.05 | 0.050 | 20 | 2 | 2 | 1 | 1.00 | 2 | –
